Data set [1] is described as follows: Toxicity against human Osteogenic sarcoma (Hos)cells. Particulars: read-out: LD50 (the source's name).
In the next data set the test system is HOS. The data set is described as follows: Effective concentration required to inhibit growth of sub clone Hos colR cells. Format: functional, cell-based. Particulars: Homo sapiens.

As a reminder, the EC50 is the concentration needed to bring the measured effect to its halfway point. Read a high EC50 as a less potent agent.

Consider `O=C(N[C@H]1CCc2cc(O)c(O)c(O)c2-c2ccc(=O)c(O)cc21)C(F)(F)F`, for which the CC50 in data set [1] was 14 µM. Further, the midpoint of the response in the data set on HOS, the EC50, lay at 26 µM.

Turning to `O=C(N[C@H]1CCc2cc(O)c(O)c(O)c2-c2ccc(=O)c(O)cc21)c1cc(O)c(O)c(O)c1`, the CC50 in data set [1] turned out to be 18 µM. The molecule also registered a concentration for a half-maximal effect (EC50) in the data set on HOS of 28 µM.

Values taken from ChEMBL document CHEMBL1126487, “Induction of reversible protein-linked DNA breaks in human osteogenic sarcoma cells by novel cytocidal colchicine derivatives which inhibit DNA topoisomerase II in vitro: Absence of cross-resistance in a colchicine-resistant sub-clone” (Bioorg Med Chem Lett, 1993).
